Each block holds one compound with its values, some of them ahead of it. Calls of active or inactive are those of the source. No cut-off for these calls is given here.
Columns and labels:
[1] = Modulation of gamma-secretase expressed in CHO cells co-expressing APP V717F mutant assessed as reduction in amyloid beta42 production after 17 hrs by ELISA; format: cell-based
MC-IXC/H4 = experiment: Inhibition of Notch intracellular domain in human MC-IXC/H4 cells assessed as reduction in HES1 protein expression at 10 uM after 24 hrs Western blotting; format: cell-based
Rattus norvegicus = experiment: Inhibition of gamma-secretase-mediated cleavage of APP in rat brain assessed as inhibition of amyloid beta42 production at 30 mg/kg, po after 4 hrs by ELISA
Mus musculus [2] = experiment: Inhibition of gamma-secretase-mediated cleavage of APP in wild type CF1 mouse brain assessed as inhibition of amyloid beta42 production at 12.5 mg/kg, po after 4 hrs by ELISA; format: functional; conditions: 12.5 mg/kg
Brain = experiment: Drug uptake in rat brain at 30 mg/kg, po after 4 hrs; conditions: in vivo
[3] = Oral bioavailability in wild type CF1 mouse; format: ADME, organism-based; conditions: in vivo
[4] = Half life in wild type CF1 mouse; format: ADME, organism-based; conditions: in vivo
[5] = Drug uptake in wild type CF1 mouse plasma at 50 mg/kg, po after 4 hrs; format: ADME, organism-based; design: dose 50 mg/kg, route oral
[6] = Clearance in wild type CF1 mouse; format: ADME, organism-based; conditions: in vivo
[7] = Drug uptake in wild type CF1 mouse brain at 50 mg/kg, po after 4 hrs; format: ADME, organism-based; design: dose 50 mg/kg, route oral; conditions: read-out: Drug uptake
Mus musculus [8] = experiment: Inhibition of gamma-secretase-mediated cleavage of APP in wild type CF1 mouse brain assessed as inhibition of amyloid beta42 production at 50 mg/kg, po after 4 hrs by ELISA; format: functional
Mus musculus [9] = experiment: Inhibition of gamma-secretase-mediated cleavage of APP in orally dosed wild type CF1 mouse brain assessed as inhibition of amyloid beta42 production after 4 hrs by ELISA; format: functional, organism-based
Nucleic Acid = experiment: Ratio of drug level in brain in wild type CF1 mouse to EC50 for gamma-secretase expressed in CHO cells; format: cell-based
[10] = Drug uptake in wild type CF1 mouse brain at 30 mg/kg, po after 4 hrs; format: ADME, organism-based; design: dose 30 mg/kg, route oral; conditions: read-out: Drug uptake
[11] = Drug uptake in wild type CF1 mouse plasma at 30 mg/kg, po after 4 hrs; format: ADME, organism-based; design: dose 30 mg/kg, route oral
Mus musculus [12] = experiment: Inhibition of gamma-secretase-mediated cleavage of APP in wild type CF1 mouse brain assessed as inhibition of amyloid beta42 production at 30 mg/kg, po after 4 hrs by ELISA; format: functional; conditions: Mus musculus, CF1, Brain, po, 4 h
CHO [13] = experiment: Modulation of gamma-secretase expressed in CHO cells co-expressing APP V717F mutant assessed as effect on amyloid beta40 production after 17 hrs by ELISA; format: cell-based
CHO [14] = experiment: Modulation of gamma-secretase expressed in CHO cells co-expressing APP V717F mutant assessed as increase in amyloid beta38 secretion after 17 hrs by ELISA; format: cell-based

Compound: O=C(O)Cc1ccc(CN2CCC(C(F)(F)F)CC2)c(-c2ccc(C(F)(F)F)cc2)c1
- EC50 [1]: > 10 µM

Compound: CC(C)(C)CC(c1ccc(CC(=O)O)cc1-c1ccc(C(F)(F)F)cc1)N1CCC(C(F)(F)F)CC1 (single isomer, unassigned; enantiomer 2) [listing 1 of 2 here]
- inhibition (MC-IXC/H4): inactive

Compound: CC(C)CCN(Cc1ccc(CC(=O)O)cc1-c1ccc(C(F)(F)F)nc1)[C@H]1CC[C@H](C(C)(C)C)CC1
- EC50 [1]: 5 µM

Compound: CC(C)CCC(NC1CCC(C(C)(C)C)CC1)c1ccc(CC(=O)O)cc1-c1ccc(C(F)(F)F)cc1 (centres undefined)
- EC50 [1]: 0.45 µM

Compound: CC(C)(C)CC(c1ccc(CC(=O)O)cc1-c1ccc(C(F)(F)F)cc1)N1CCC(C(F)(F)F)CC1 (single isomer, unassigned; enantiomer 2) [listing 2 of 2 here]
- inhibition (INH) (Rattus norvegicus): 30%
- inhibition (INH) (Mus musculus [2]): 30%
- concentration (Brain): 26 µM

Compound: CC(C)(C)CC(c1ccc(CC(=O)O)cc1-c1ccc(C(F)(F)F)cc1)N1CCC(C(F)(F)F)CC1 (racemic)
- inhibition (Mus musculus [9]): Dose-dependent effect

Compound: CC(C)CCN(Cc1ccc(CC(=O)O)cc1-c1ccc(C(F)(F)F)cc1)[C@H]1CC[C@H](C(C)(C)C)CC1
- Ratio (Nucleic Acid): 10
- EC50 [1]: 0.67 µM
- concentration at 4 h [7]: 7 µM
- inhibition in vivo at 50 mg/kg (Mus musculus [8]): 24%

Compound: CC(C)CCC(c1ccc(C(CC(C)C)C(=O)O)cc1-c1ccc(C(F)(F)F)cc1)N1CCC(C(F)(F)F)CC1 (centres undefined)
- concentration at 4 h [10]: 4 µM
- EC50 [1]: 0.21 µM
- concentration at 4 h [11]: 14 µM
- inhibition in vivo at 30 mg/kg (Mus musculus [12]): 21%

Compound: CC(C)CCN(Cc1ccc(CC(=O)O)cc1-c1ccc(C(F)(F)F)cc1)c1ccc(C(F)(F)F)cc1
- concentration at 4 h [5]: 15 µM
- EC50 [1]: 1.5 µM
- concentration at 4 h [7]: 0.6 µM
- Activity (CHO [13]): inactive
- inhibition (Mus musculus [8]): inactive
- Activity (CHO [14]): Active

The next lines start with results.

- EC50 [1]: 1.1 µM
Compound: CC(C)CCC(c1ccc(CC(=O)O)cc1-c1ccc(C(F)(F)F)cc1)N1CCC(C(C)(C)C)CC1 (centres undefined)

- EC50 [1]: 5.9 µM
Compound: CC(C)CCC(c1ccc(CC(=O)O)cc1-c1ccc(C(F)(F)F)cc1)N1CC[C@H](F)C1 (some centres undefined)

- EC50 [1]: 10 µM
Compound: CC(C)CCC(c1ccc(CC(=O)O)cc1-c1ccc(C(F)(F)F)cc1)N1CCC(C)CC1 (centres undefined)

- bioavailability [3]: 100%
- half-life [4]: 2.9 h
- concentration at 4 h [5]: 32 µM
- EC50 [1]: 0.62 µM
- clearance [6]: 3.2 mL/min/kg
- concentration at 4 h [7]: 17 µM
Compound: CC(C)CCC(c1ccc(CC(=O)O)cc1-c1ccc(C(F)(F)F)cc1)N1CCC(C(F)(F)F)CC1 (centres undefined)
- inhibition in vivo at 50 mg/kg (Mus musculus [8]): 35%

- EC50 [1]: > 10 µM
Compound: CC(C)CCC(c1ccc(CC(=O)O)cc1-c1ccc(C(F)(F)F)cc1)N1CC[C@@H](F)C1 (some centres undefined)

- EC50 [1]: 3.3 µM
Compound: CC(C)CCC(c1ccc(CC(=O)O)cc1-c1ccc(C(F)(F)F)cc1)N1CCC(F)(F)C1 (centres undefined)
